Data from ChEMBL document CHEMBL1201862, “PubChem BioAssay data set” (2004).
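Cells were grown in 96-well plates and exposed to each compound for 48 hours at five concentrations; endpoints were interpolated linearly between bracketing concentrations, or set to the highest concentration if not reached. GI50 is the concentration that inhibits growth by half.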 Activity calls are given as the source filed them. No stated cut-off is given here; in the data, active = GI50 up to about 1.1 µM and inactive = higher.

Legend:
Experiment in all cases: DTP human tumour cell line panel, 48 h
CCRF-CEM = tested on: CCRF-CEM
SW-620 = tested on: SW-620
Malme-3M = tested on: Malme-3M
LOX IMVI = tested on: LOX IMVI
HCT-15 = tested on: HCT-15
K562 = tested on: K562
RPMI-8226 = tested on: RPMI-8226
OVCAR-5 = tested on: OVCAR-5
A498 = tested on: A498
SNB-19 = tested on: SNB-19
HT-29 = tested on: HT-29
SF-295 = tested on: SF-295
HOP-92 = tested on: HOP-92
OVCAR-4 = tested on: OVCAR-4
OVCAR-3 = tested on: OVCAR-3
EKVX = tested on: EKVX
SNB-75 = tested on: SNB-75
UO-31 = tested on: UO-31
MOLT-4 = tested on: MOLT-4
SK-OV-3 = tested on: SK-OV-3

SMILES: Cc1cc(=O)oc2cc(OS(C)(=O)=O)ccc12
- GI50 (CCRF-CEM): > 100 µM (inactive)
- GI50 (SW-620): > 100 µM (inactive)
- GI50 (Malme-3M): > 100 µM (inactive)
- GI50 (LOX IMVI): > 100 µM (inactive)
- GI50 (HCT-15): > 100 µM
- GI50 (K562): > 100 µM (inactive)
- GI50 (RPMI-8226): > 100 µM (inactive)
- GI50 (OVCAR-5): > 100 µM (inactive)
- GI50 (A498): > 100 µM (inactive)
- GI50 (SNB-19): > 100 µM (inactive)
- GI50 (HT-29): > 100 µM (inactive)
- GI50 (SF-295): > 100 µM (inactive)
- GI50 (HOP-92): > 100 µM (inactive)
- GI50 (OVCAR-4): > 100 µM (inactive)
- GI50 (OVCAR-3): > 100 µM (inactive)
- GI50 (EKVX): > 100 µM (inactive)
- GI50 (SNB-75): > 100 µM (inactive)

SMILES: C[C@H]1S[C@@H](c2ccc(Cl)cc2Cl)N(NC(=O)c2ccncc2)C1=O
- GI50 (CCRF-CEM): 11.3 µM (inactive)
- GI50 (Malme-3M): > 100 µM (inactive)
- GI50 (HCT-15): 47.9 µM
- GI50 (UO-31): 37 µM (inactive)
- GI50 (MOLT-4): 18.4 µM (inactive)
- GI50 (K562): 28.1 µM (inactive)
- GI50 (RPMI-8226): 40.2 µM (inactive)
- GI50 (OVCAR-5): 95.9 µM (inactive)
- GI50 (A498): > 100 µM (inactive)
- GI50 (SNB-19): 62.4 µM (inactive)
- GI50 (SK-OV-3): > 100 µM (inactive)
- GI50 (HT-29): > 100 µM (inactive)
- GI50 (HOP-92): 60.5 µM (inactive)
- GI50 (OVCAR-4): > 100 µM (inactive)
- GI50 (OVCAR-3): 35.6 µM (inactive)
- GI50 (SNB-75): 80.5 µM (inactive)

SMILES: Cc1cc(=O)c2c([nH]1)NS(=O)(=O)NC2=O
- GI50 (CCRF-CEM): > 100 µM (inactive)
- GI50 (SW-620): > 100 µM (inactive)
- GI50 (Malme-3M): > 100 µM (inactive)
- GI50 (HCT-15): > 100 µM
- GI50 (UO-31): > 100 µM (inactive)
- GI50 (MOLT-4): > 100 µM (inactive)
- GI50 (K562): > 100 µM (inactive)
- GI50 (RPMI-8226): > 100 µM (inactive)
- GI50 (A498): > 100 µM (inactive)
- GI50 (SNB-19): > 100 µM (inactive)
- GI50 (SK-OV-3): > 100 µM (inactive)
- GI50 (HT-29): > 100 µM (inactive)
- GI50 (SF-295): > 100 µM (inactive)
- GI50 (HOP-92): > 100 µM (inactive)
- GI50 (OVCAR-4): > 100 µM (inactive)
- GI50 (OVCAR-3): > 100 µM (inactive)
- GI50 (EKVX): > 100 µM (inactive)
- GI50 (SNB-75): > 100 µM (inactive)

SMILES: Cc1ccc(/N=N/C(C(=O)c2ccccc2)C(=O)c2ccccc2)cc1
- GI50 (CCRF-CEM): 10.9 µM (inactive)
- GI50 (SW-620): 29.1 µM (inactive)
- GI50 (Malme-3M): 29.9 µM (inactive)
- GI50 (HCT-15): 14.2 µM
- GI50 (UO-31): 14.8 µM (inactive)
- GI50 (MOLT-4): 10.2 µM (inactive)
- GI50 (K562): 17.7 µM (inactive)
- GI50 (RPMI-8226): 16.9 µM (inactive)
- GI50 (OVCAR-5): 22.2 µM (inactive)
- GI50 (A498): 27.4 µM (inactive)
- GI50 (SNB-19): 19 µM (inactive)
- GI50 (SK-OV-3): 47.1 µM (inactive)
- GI50 (HT-29): 22 µM (inactive)
- GI50 (SF-295): 24.7 µM (inactive)
- GI50 (HOP-92): 13.6 µM (inactive)
- GI50 (OVCAR-4): 13.1 µM (inactive)
- GI50 (OVCAR-3): 29.1 µM (inactive)
- GI50 (EKVX): 30.7 µM (inactive)
- GI50 (SNB-75): 20.6 µM (inactive)

SMILES: CCOc1ccc2c(C)cc(=O)oc2c1
- GI50 (CCRF-CEM): > 100 µM (inactive)
- GI50 (SW-620): > 100 µM (inactive)
- GI50 (Malme-3M): > 100 µM (inactive)
- GI50 (LOX IMVI): > 100 µM (inactive)
- GI50 (HCT-15): > 100 µM
- GI50 (UO-31): > 100 µM (inactive)
- GI50 (MOLT-4): > 100 µM (inactive)
- GI50 (K562): > 100 µM (inactive)
- GI50 (RPMI-8226): > 100 µM (inactive)
- GI50 (OVCAR-5): > 100 µM (inactive)
- GI50 (A498): > 100 µM (inactive)
- GI50 (SNB-19): > 100 µM (inactive)
- GI50 (HT-29): > 100 µM (inactive)
- GI50 (SF-295): > 100 µM (inactive)
- GI50 (HOP-92): > 100 µM (inactive)
- GI50 (OVCAR-4): > 100 µM (inactive)
- GI50 (OVCAR-3): > 100 µM (inactive)
- GI50 (EKVX): > 100 µM (inactive)
- GI50 (SNB-75): > 100 µM (inactive)

SMILES: COc1cc(/C=C2\N=C(c3ccccc3)N(C3Nc4cc5c(cc4S3)NC(N3C(=O)/C(=C/c4cc(OC)c(OC)c(OC)c4)N=C3c3ccccc3)S5)C2=O)cc(OC)c1OC (centres undefined)
- GI50 (SW-620): > 100 µM (inactive)
- GI50 (LOX IMVI): 74.1 µM (inactive)
- GI50 (HCT-15): 57.5 µM
- GI50 (UO-31): 54.1 µM (inactive)
- GI50 (MOLT-4): 25.9 µM (inactive)
- GI50 (K562): 71.9 µM (inactive)
- GI50 (RPMI-8226): 28.8 µM (inactive)
- GI50 (OVCAR-5): > 100 µM (inactive)
- GI50 (A498): 68.4 µM (inactive)
- GI50 (HT-29): 74.6 µM (inactive)
- GI50 (SF-295): 83.6 µM (inactive)
- GI50 (HOP-92): > 100 µM (inactive)
- GI50 (OVCAR-4): 70.5 µM (inactive)
- GI50 (OVCAR-3): 61 µM (inactive)
- GI50 (EKVX): 44.1 µM (inactive)
- GI50 (SNB-75): > 100 µM (inactive)

SMILES: COC1=CC(=O)C2(C=C1OC)OC[C@H]1Oc3c(ccc4c3C=CC(C)(C)O4)C(=O)[C@H]12 (some centres undefined)
- GI50 (CCRF-CEM): 28.1 µM (inactive)
- GI50 (SW-620): 35 µM (inactive)
- GI50 (Malme-3M): 57 µM (inactive)
- GI50 (LOX IMVI): 78.9 µM (inactive)
- GI50 (UO-31): 60.5 µM (inactive)
- GI50 (MOLT-4): 27.4 µM (inactive)
- GI50 (K562): 36.8 µM (inactive)
- GI50 (RPMI-8226): 22.6 µM (inactive)
- GI50 (OVCAR-5): > 100 µM (inactive)
- GI50 (A498): 63.7 µM (inactive)
- GI50 (SNB-19): 47 µM (inactive)
- GI50 (SK-OV-3): 70.1 µM (inactive)
- GI50 (HT-29): 49.2 µM (inactive)
- GI50 (HOP-92): 7.64 µM (inactive)
- GI50 (OVCAR-3): 42.4 µM (inactive)
- GI50 (EKVX): 27.4 µM (inactive)
- GI50 (SNB-75): 32.1 µM (inactive)

SMILES: O=C1CCC(NC(=O)Cc2ccc(O)cc2)C(=O)N1 (centres undefined)
- GI50 (SW-620): > 2500 µM (inactive)
- GI50 (LOX IMVI): > 2500 µM (inactive)
- GI50 (HCT-15): > 2500 µM
- GI50 (UO-31): > 2500 µM (inactive)
- GI50 (OVCAR-5): > 2500 µM (inactive)
- GI50 (A498): > 2500 µM (inactive)
- GI50 (SNB-19): > 2500 µM (inactive)
- GI50 (SK-OV-3): 1020 µM (inactive)
- GI50 (HT-29): > 2500 µM (inactive)
- GI50 (SF-295): > 2500 µM (inactive)
- GI50 (HOP-92): > 2500 µM (inactive)
- GI50 (OVCAR-4): > 2500 µM (inactive)
- GI50 (OVCAR-3): > 2500 µM (inactive)
- GI50 (EKVX): > 2500 µM (inactive)
- GI50 (SNB-75): 589 µM (inactive)

SMILES: COc1ccccc1N1C(=O)/C(=C\c2cc(OC)c(OC)c(OC)c2)SC1c1ccccc1 (centres undefined)
- GI50 (CCRF-CEM): 6.76 µM (inactive)
- GI50 (SW-620): 53.1 µM (inactive)
- GI50 (Malme-3M): 20.3 µM (inactive)
- GI50 (LOX IMVI): 26.9 µM (inactive)
- GI50 (HCT-15): 44.7 µM
- GI50 (UO-31): 11.5 µM (inactive)
- GI50 (MOLT-4): 9.95 µM (inactive)
- GI50 (K562): 4.33 µM (inactive)
- GI50 (RPMI-8226): 3.11 µM (inactive)
- GI50 (OVCAR-5): > 100 µM (inactive)
- GI50 (A498): > 100 µM (inactive)
- GI50 (SNB-19): 27 µM (inactive)
- GI50 (SK-OV-3): 21.4 µM (inactive)
- GI50 (HT-29): 45.3 µM (inactive)
- GI50 (SF-295): 23.1 µM (inactive)
- GI50 (HOP-92): 22.7 µM (inactive)
- GI50 (OVCAR-4): 49.4 µM (inactive)
- GI50 (OVCAR-3): 37.5 µM (inactive)
- GI50 (EKVX): 13.2 µM (inactive)

SMILES: N#Cc1c2ccc([N+](=O)[O-])cc2c(=O)n2c1sc1ccc(C(F)(F)F)cc12
- GI50 (SW-620): > 100 µM (inactive)
- GI50 (Malme-3M): > 100 µM (inactive)
- GI50 (LOX IMVI): > 100 µM (inactive)
- GI50 (HCT-15): > 100 µM
- GI50 (UO-31): > 100 µM (inactive)
- GI50 (MOLT-4): > 100 µM (inactive)
- GI50 (K562): > 100 µM (inactive)
- GI50 (RPMI-8226): > 100 µM (inactive)
- GI50 (OVCAR-5): > 100 µM (inactive)
- GI50 (A498): > 100 µM (inactive)
- GI50 (SNB-19): > 100 µM (inactive)
- GI50 (SK-OV-3): > 100 µM (inactive)
- GI50 (HT-29): > 100 µM (inactive)
- GI50 (SF-295): > 100 µM (inactive)
- GI50 (HOP-92): > 100 µM (inactive)
- GI50 (OVCAR-4): > 100 µM (inactive)
- GI50 (OVCAR-3): > 100 µM (inactive)
- GI50 (EKVX): > 100 µM (inactive)
- GI50 (SNB-75): > 100 µM (inactive)

SMILES: O=C(OCCOC(=O)c1ccc2c(c1)C1(SCCS1)c1ccccc1-2)c1ccc2c(c1)C1(SCCS1)c1ccccc1-2
- GI50 (CCRF-CEM): > 100 µM (inactive)
- GI50 (SW-620): > 100 µM (inactive)
- GI50 (Malme-3M): > 100 µM (inactive)
- GI50 (LOX IMVI): > 100 µM (inactive)
- GI50 (HCT-15): > 100 µM
- GI50 (UO-31): > 100 µM (inactive)
- GI50 (MOLT-4): > 100 µM (inactive)
- GI50 (K562): > 100 µM (inactive)
- GI50 (RPMI-8226): > 100 µM (inactive)
- GI50 (OVCAR-5): > 100 µM (inactive)
- GI50 (A498): > 100 µM (inactive)
- GI50 (SNB-19): > 100 µM (inactive)
- GI50 (SK-OV-3): > 100 µM (inactive)
- GI50 (HT-29): > 100 µM (inactive)
- GI50 (SF-295): > 100 µM (inactive)
- GI50 (OVCAR-4): > 100 µM (inactive)
- GI50 (OVCAR-3): > 100 µM (inactive)
- GI50 (EKVX): > 100 µM (inactive)
- GI50 (SNB-75): > 100 µM (inactive)
